Measurements reported in patent US20260008768A1, “UREA DERIVATIVES FOR INHIBITING NLRP3 AND USES THEREOF” (VENTUS THERAPEUTICS U.S., INC., priority 2023, published 2026).

Assays:
[1] = target: T1, human NLRP3 (Homo sapiens, UniProt Q96P20); assay: Human PBMC NLRP3 Assay (LPS priming, ATP stimulation, cytokine measurement); format: cell-based; design: host or cells: human PBMCs (A2); human whole blood from healthy volunteers (A3); settings: for IC50: human PBMC, LPS + ATP
Experimental: Reagents: Human PBMCs (Normal): iXCells Cat #10HU-003; RPMI 1640 medium with GlutaMAX: ThermoFisher Cat #61870127 (Complete Media: 4.5 g/L D-glucose, 10% FBS, 100 mM NaPyr, 1% Pen/Strep, 10 mM HEPES and 0.05 mM of ®-mercaptoethanol; Assay Media: 4.5 g/L D-glucose, 100 mM NaPyr, 1% Pen/Strep, 10 mM HEPES and 0.05 mM of mercaptoethanol; 96-well V-bottom Plates: Costar Cat #3894; LPS (E. coli O26:B6): Sigma Cat #L2654, stock 5 mg/mL in PBS; ATP: Sigma Cat #A6419, prepared in a 250 mM stock in 1 M HEPES (adjusted to pH 7.4).
Cryopreserved PBMCs were rapidly thawed in a 37° C. water bath for 2 min. Cells were then centrifuged at 1200 RPM for 5 min and resuspended in ˜50 mL of fresh RPMI 1640 Complete Medium. A count was undertaken using a hemocytometer and adjusted to 2.5×10^5 cells/mL. V-shaped 96-well plates were seeded with 200 μL of PBMCs (5×10^4) per well and subsequently incubated overnight at 37° C. with 5% CO2. Assay Media was then prepared containing 100 ng/ml of LPS. PBMCs were then centrifuged at 1,200 RPM for 5 min, serum containing media was aspirated, and 150 μL/well of Assay Media+LPS was immediately added. Assay Media without LPS was added in the untreated control wells. Cells were then primed with LPS for 4 h at 37° C. with 5% CO2. A concentration response curve (CRC) was prepared of 1000× test compound in 100% DMSO. The CRC was then diluted 1:50 in Assay Media and then further diluted by 1:5× in Assay Media resulting in a final 4×CRC in 0.4% DMSO/Assay Media. 50 μL/well of 4× test compound CRC or vehicle (0.4% DMSO/Assay Media) was then transferred into each well and subsequently incubated for 30 min at 37° C. with 5% CO2. Cells were stimulated by adding 4 μL of 250 mM ATP, using a 250 mM stock prepared in 1 M Hepes without further dilution (for a final concentration of 5 mM), for 1 h at 37° C. with 5% CO2 Plates were then centrifuged at 1200 RPM for 5 min; and 50 μl of the media was transferred to a clean 96-well storage plate for cytokine measurements using the mesoscale platform, and stored at −80° C. until analyzed. Compounds were added 30 minutes before priming the cells with LPS when TNFα was required to be quantified in the cytokine panel to confirm selectivity.
PBMC NLRP3 IC50 assay results, as a measurement of cellular potency, are provided in Table B. “A” activity=<0.01 uM; “B” activity=0.01-0.1 uM; “C” activity=>0.1-0.5 uM; “D” activity=>0.5 uM.

[2] = target: T1, human NLRP3; assay: Human Whole Blood (hWB) NLRP3 Assay (LPS/ATP, IL-1β); format: cell-based; design: host or cells: human whole blood from healthy volunteers (A3)
Experimental: Human whole blood is drawn from healthy volunteers after obtaining written informed consent. Heparin lithium coated tubes are used to collect blood from volunteers. Blood samples are distributed on 96 well plates using 90 μl per well.
Priming procedure: Priming is performed by adding 5 μl of LPS (O26:B6; Sigma L-2654) at a final concentration of 1 μg/ml for 4.5 hours in a humidified incubator with 37° C., 5% CO2. Thirty minutes prior to NLRP3 activation, 5 μl of a 20× compound solution or vehicle (2% dimethylsulfoxide (DMSO)) is added to each well and plates were incubated on a shaker (450 rpm) in a humidified incubator with 37° C., 5% CO2.
Alternative priming procedure: Thirty minutes prior to LPS priming, 5 μl of a 20× compound solution or vehicle (2% dimethylsulfoxide (DMSO)) is added to each well and plates were incubated on a shaker (450 rpm) in a humidified incubator with 37° C., 5% CO2. Priming is performed by adding 5 μl of LPS (O26:B6; Sigma L-2654) at a final concentration of 1 μg/ml for 5 hours in a humidified incubator with 37° C., 5% CO2.
Activation is then performed by adding 3.3 μl of a 31×ATP solution per well. At the end of the 30 minutes stimulation, the plates are centrifuged (800 g, 10 min, room temperature) and the plasma from each well is frozen at −80° C. IL-1β levels in the supernatant were analyzed using a mesoscale discovery assay (MSD K151TUK) according to the manufacturers' instructions.
There is no detectable difference in assay results using the priming procedure versus the alternative priming procedure.
hWB NLRP3 IC50 assay results, as a measurement of whole blood potency, are provided in Table B. “A” activity=<1 uM; “B” activity=1-2 uM; “C” activity=>2-3 uM; “D” activity=>3 uM.

[3] = target: T1, human NLRP3; assay: Scintillation Proximity (SPA) NLRP3 Assay, displacement of 3H-MCC950; format: binding; settings: for IC50: displacement of 3H-MCC950 from human NLRP3
Procedure, shortened: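 Human NLRP3 (350 nM) preincubated 15 min at RT with compound (5% DMSO final) in HEPES pH 7.5 buffer with 100 μM ADP, then 125 nM 3H-MCC950 added for 60 min. Copper PVT SPA beads added; counts read 6 h later. Specific binding = signal minus no-protein wells, duplicates averaged; IC50 reported.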

[4] = relative to Comparative Example B1

T1 sequence (Q96P20 whole entry): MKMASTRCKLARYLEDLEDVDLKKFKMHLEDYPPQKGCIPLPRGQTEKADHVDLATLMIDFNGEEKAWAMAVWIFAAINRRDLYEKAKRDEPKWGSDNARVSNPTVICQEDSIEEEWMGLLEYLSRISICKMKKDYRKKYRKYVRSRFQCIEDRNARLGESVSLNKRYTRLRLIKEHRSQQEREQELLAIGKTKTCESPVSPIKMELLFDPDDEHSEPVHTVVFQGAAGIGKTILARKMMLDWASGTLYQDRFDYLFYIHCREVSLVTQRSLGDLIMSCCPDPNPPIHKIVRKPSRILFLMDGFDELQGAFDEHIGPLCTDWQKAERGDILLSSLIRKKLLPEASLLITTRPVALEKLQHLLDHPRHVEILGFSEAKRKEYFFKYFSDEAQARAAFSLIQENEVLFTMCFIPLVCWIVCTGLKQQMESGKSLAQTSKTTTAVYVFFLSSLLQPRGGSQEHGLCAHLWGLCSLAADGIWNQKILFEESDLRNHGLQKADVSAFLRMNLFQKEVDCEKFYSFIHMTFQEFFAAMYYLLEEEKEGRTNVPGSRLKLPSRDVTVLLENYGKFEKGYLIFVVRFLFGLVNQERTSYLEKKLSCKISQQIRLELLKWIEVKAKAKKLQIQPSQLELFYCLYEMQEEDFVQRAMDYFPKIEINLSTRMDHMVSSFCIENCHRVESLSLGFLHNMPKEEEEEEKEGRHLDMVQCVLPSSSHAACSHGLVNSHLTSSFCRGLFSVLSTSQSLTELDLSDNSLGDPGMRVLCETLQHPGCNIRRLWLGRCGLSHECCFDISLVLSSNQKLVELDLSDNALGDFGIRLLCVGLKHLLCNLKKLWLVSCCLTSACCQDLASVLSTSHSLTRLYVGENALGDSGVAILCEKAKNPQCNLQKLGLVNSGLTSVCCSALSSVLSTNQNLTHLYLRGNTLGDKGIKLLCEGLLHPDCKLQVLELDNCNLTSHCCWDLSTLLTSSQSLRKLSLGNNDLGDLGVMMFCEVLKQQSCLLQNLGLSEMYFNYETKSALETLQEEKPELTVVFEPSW

Row | Structure (SMILES) | IC50 ([1]; Table B, activity class) [nM] | IC50 ([2]; Table B, activity class) [nM] | IC50 ([3]; Table B, activity class) [nM] | further results
1 | C[C@@H]1CCN(c2nnn[nH]2)C[C@H](NC(=O)N(C)c2ccc(Cl)cc2F)C1 (single isomer, unassigned) [5A*] | < 10 | < 1000 | < 1000 | IC50 ([1]; Table C): 4 nM; IC50 ([2]; Table C): 36 nM; IC50 ([3]; Table C): 71 nM; fold improvement in binding activity (SPA IC50) ([3]; relative to Compound 27A*): > 19 fold
2 | C[C@@H]1CCN(c2nnn[nH]2)C[C@H](NC(=O)N(C)c2ccc(C3CC3)cc2)C1 (single isomer, unassigned) [8A*] | < 10 | – | < 1000 | –
3 | C[C@@H]1CCN(c2nnn[nH]2)C[C@H](NC(=O)N(C)c2ccc(C(F)(F)F)c(F)c2)C1 (single isomer, unassigned) [9A*] | 10 to 100 | – | < 1000 | –
4 | C[C@@H]1CCN(c2nnn[nH]2)C[C@H](NC(=O)N(C)c2ccc(Cl)c(F)c2)C1 (single isomer, unassigned) [12A*] | 10 to 100 | 2000 to 3000 | < 1000 | –
5 | C[C@@H]1CCN(c2nnn[nH]2)C[C@H](NC(=O)N(C)c2ccc(C(F)(F)F)cc2F)C1 (single isomer, unassigned) [13A*] | < 10 | < 1000 | < 1000 | IC50 ([1]; Table C): 5.6 nM; IC50 ([2]; Table C): 200 nM; IC50 ([3]; Table C): 550 nM
6 | C[C@@H]1CCN(c2nnn[nH]2)C[C@H](NC(=O)N(C)c2ccc(C(F)F)c(F)c2)C1 (single isomer, unassigned) [22A*] | – | 1000 to 2000 | < 1000 | –
7 | C[C@@H]1CCN(c2nnn[nH]2)C[C@H](NC(=O)N(C)c2ccc(OC(F)(F)F)c(OC(F)F)c2)C1 (single isomer, unassigned) [25A*] | – | 1000 to 2000 | < 1000 | –
8 | C[C@@H]1CCN(c2nnn[nH]2)C[C@H](NC(=O)N(C)c2cnc(C(F)(F)F)cn2)C1 (single isomer, unassigned) [32A*] | – | > 3000 | 10000 to 50000 | –
9 | C[C@H]1CCN(c2nnn[nH]2)C[C@@H](NC(=O)N(C)c2ccc(OC(F)F)c(F)c2F)C1 (single isomer, unassigned) [40D*] | – | > 3000 | 1000 to 10000 | –
10 | C[C@@H]1CCN(c2nnn[nH]2)C[C@H](NC(=O)N(CC2CC2)c2ccc(OC(F)(F)F)cc2)C1 (single isomer, unassigned) [44A*] | – | 2000 to 3000 | < 1000 | –
11 | C[C@@H]1C[C@@H](NC(=O)N(C)c2ccc(OC(F)(F)F)cc2)[C@H]2CC[C@@H]1N2c1nnn[nH]1 (single isomer, unassigned) [45A*] | – | < 1000 | – | IC50 ([2]; Table C): 420 nM; IC50 ([3]; Table C): 110 nM; fold increase in binding activity (SPA IC50) ([3]; relative to Compound 39A): > 12 fold
12 | C[C@@H]1C[C@@H](NC(=O)N(C)c2ccc(C(F)(F)F)c(F)c2F)[C@H]2CC[C@@H]1N2c1nnn[nH]1 (single isomer, unassigned) [47A*] | – | 1000 to 2000 | < 1000 | –
13 | C[C@@H]1C[C@@H](NC(=O)N(C)c2ccc(C(F)(F)F)cc2F)[C@H]2CC[C@@H]1N2c1nnn[nH]1 (single isomer, unassigned) [48A*] | – | < 1000 | < 1000 | –
14 | C[C@@H]1C[C@@H](NC(=O)N(C)c2ccc(OC(F)(F)F)c(F)c2)[C@H]2CC[C@@H]1N2c1nnn[nH]1 (single isomer, unassigned) [51A*] | – | 1000 to 2000 | < 1000 | –
15 | C[C@@H]1C[C@@H](NC(=O)N(C)c2ccc(C(F)F)cc2F)[C@H]2CC[C@@H]1N2c1nnn[nH]1 (single isomer, unassigned) [55A*] | – | < 1000 | < 1000 | –
16 | C[C@@H]1C[C@@H](NC(=O)N(C)c2ccc(OC(F)(F)F)cc2F)[C@H]2CC[C@@H]1N2c1nnn[nH]1 (single isomer, unassigned) [56A*] | – | < 1000 | < 1000 | –
17 | C[C@@H]1C[C@@H](NC(=O)N(C)c2ccc(OC(F)F)c(F)c2F)[C@H]2CC[C@@H]1N2c1nnn[nH]1 (single isomer, unassigned) [58A*] | – | < 1000 | – | –
18 | C[C@@H]1C[C@@H](NC(=O)N(C)c2ccc(OC(F)(F)F)c(OC(F)F)c2)[C@H]2CC[C@@H]1N2c1nnn[nH]1 (single isomer, unassigned) [63A*] | – | 2000 to 3000 | < 1000 | –
19 | CCN(C(=O)N[C@@H]1C[C@@H](C)[C@@H]2CC[C@H]1N2c1nnn[nH]1)c1ccc(OC(F)F)cc1F (single isomer, unassigned) [65A*] | – | < 1000 | < 1000 | –
20 | O=C(Nc1ccc(Cl)cc1)Nc1cccc(-c2nnn[nH]2)c1 [Comparative Example B1, 1-(3-(1H-tetrazol-5-yl)phenyl)-3-(4-chlorophenyl)urea, reference compound] | – | – | – | IC50 ([1]; Table C): > 5000 nM; IC50 ([3]; Table C): 190000 nM
21 | CN(C(=O)Nc1cccc(-c2nnn[nH]2)c1)c1ccc(Cl)cc1 [Comparative Example B2, 3-(3-(1H-tetrazol-5-yl)phenyl)-1-(4-chlorophenyl)-1-methylurea, reference compound] | – | – | – | IC50 ([1]; Table C): 4200 nM; IC50 ([3]; Table C): 12500 nM; fold improvement in binding activity (SPA IC50) [3, 4]: > 15 fold
22 | CN(C(=O)N[C@@H]1CCCN(c2nnn[nH]2)C1)c1ccc(Cl)cc1 [Compound 2A, (R)-3-(1-(1H-tetrazol-5-yl)piperidin-3-yl)-1-(4-chlorophenyl)-1-methylurea] | 100 to 500 | – | 1000 to 10000 | IC50 ([1]; Table C): 268 nM; fold increase in potency as measured by PBMC IC50 ([1]; relative to Comparative Example A*): > 350 fold; fold improvement in potency (PBMC IC50) [1, 4]: > 18 fold; fold increase in potency as measured by PBMC IC50 ([1]; relative to Comparative Example B2): > 15 fold; fold improvement in potency (PBMC IC50) ([1]; relative to Comparative Example C1): 40 fold; fold improvement in potency (PBMC IC50) ([1]; relative to Comparative Example C2): > 200 fold; fold increase in potency (PBMC IC50) ([1]; relative to Comparative Example D1): 146 fold; fold increase in potency (PBMC IC50) ([1]; relative to Comparative Example D2): > 350 fold; fold increase in potency (PBMC IC50) ([1]; relative to Comparative Example F): 58 fold; fold increase in potency (PBMC IC50) ([1]; relative to Comparative Example G): > 350 fold; fold increase in potency (PBMC IC50) ([1]; relative to Comparative Example H): 39 fold; fold increase in potency (PBMC IC50) ([1]; relative to Comparative Example J1): > 350 fold; fold increase in potency (PBMC IC50) ([1]; relative to Comparative Example J2): > 350 fold; IC50 ([3]; Table C): 9700 nM; fold improvement in binding activity (SPA IC50) [3, 4]: > 19 fold
23 | CCN(C(=O)N[C@@H]1C[C@H](C)CN(c2nnn[nH]2)C1)c1ccc(Cl)cc1 [Compound 6A, 1-(4-chlorophenyl)-1-ethyl-3-((3R,5S)-5-methyl-1-(1H-tetrazol-5-yl)piperidin-3-yl)urea] | 10 to 100 | – | < 1000 | –
